The values below come from patent publication US20240270809A1, “ORAL GLP RECEPTOR AGONISTS” (priority 2020, published 2024).

SMILES strings stand for the structures. Read-outs that look alike come from different tables or passages of the source. Positions of bridges follow the written chain, without caps; N, C: chain ends. Non-standard residues stand in square brackets, D forms with d. Residues, ends and D or L forms follow the SMILES beside them. *: point of attachment. Malonyl(2,2-Me2,histaminyl) = CC(C)(C(=O)NCCc1cnc[nH]1)C(=O)*; Ala(1H-tetrazol-5-yl) = N[C@@H](Cc1nnn[nH]1)C(=O)O; αMePhe(2-F) = C[C@](N)(Cc1ccccc1F)C(=O)O; Nle = CCCC[C@H](N)C(=O)O

One data set addresses T1, human GLP1 receptor (Homo sapiens, UniProt P43220).
T1 construct: expressed in transfected cells; host or cells: HEK cells, BacMam virus transduction
Nature of the data set: cAMP accumulation assay, functional agonism of human GLP1 receptor. In kind it is cell-based. Conditions: HEK cells infected with human GLP1 receptor BacMam virus, HTRF cAMP; for Emax: HEK293, read-out: Human GLP-1R agonist cAMP Emax; for EC50: read-out: Human GLP-1R agonist cAMP pEC50 (converted). The essentials: (§1)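 cAMP by HTRF in BacMam-transduced HEK cells (24 h infection, frozen stocks); 0.5 mM IBMX in HBSS, 45 min, 37° C.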

The next data set deals with T2, mouse GLP1 receptor (Mus musculus, UniProt O35659).
T2 construct: expressed in transfected cells; host or cells: HEK cells, transient transfection with GeneJuice
T2 sequence (O35659 22-463): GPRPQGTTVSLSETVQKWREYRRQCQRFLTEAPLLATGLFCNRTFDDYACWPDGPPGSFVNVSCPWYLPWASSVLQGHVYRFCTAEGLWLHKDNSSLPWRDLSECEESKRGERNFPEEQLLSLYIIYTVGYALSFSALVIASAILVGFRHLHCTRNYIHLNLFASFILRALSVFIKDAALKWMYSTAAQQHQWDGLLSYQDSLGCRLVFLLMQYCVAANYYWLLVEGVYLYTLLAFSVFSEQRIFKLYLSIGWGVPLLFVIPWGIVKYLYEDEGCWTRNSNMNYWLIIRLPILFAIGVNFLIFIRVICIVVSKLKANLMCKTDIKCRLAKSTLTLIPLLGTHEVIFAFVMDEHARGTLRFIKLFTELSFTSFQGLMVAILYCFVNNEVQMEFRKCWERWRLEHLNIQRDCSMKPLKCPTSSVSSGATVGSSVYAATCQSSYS
The data set can be described thus: cAMP accumulation assay, functional agonism of mouse GLP1 receptor. In kind it is cell-based. Conditions: HEK cells transiently transfected with mouse GLP1 receptor, HTRF cAMP.

The nature of data set [1]: Stability of peptides in Fasted-State Simulated Gastric Fluid (FaSSGF). It is filed as in vitro ADME. Conditions: FaSSGF with 0.1 mg/ml pepsin; t=30 mins, 37° C., pH 1.6, 0.1 mg/ml pepsin.
Data set [2] can be described thus: Stability of peptides in rat intestinal fluid (ratIF). Conditions: Sprague Dawley, undiluted rat small intestinal fluid (ratIF).
Method: (§2) Peptides were tested for in vitro stability in native intestinal fluid obtained from the rat small intestine. Rat Sprague Dawley Small Intestinal Fluid (ratIF) (from Biotrend art. no. RSD-SIF-MI-30ML, undiluted) was preincubated for 15 min at 37° C. and spiked with test and reference item working solutions. Experiments were conducted in duplicate in a non-serial manner. The total incubation volume per replicate was 150 μl. […] All samples and calibration standards (prepared in ratIF) were precipitated by addition of 300 μl precipitant (ACN / 2% acetic acid / 0.2% HFBA, (precipitation regent, PR)) containing internal standards (ISTD) to 150 μl sample. After incubation for 1 h at room temperature all samples were centrifuged for 10 min at 2,200×g (room temperature).
A further data set addresses T3, human GLP2 receptor (Homo sapiens, UniProt O95838).
T3 construct: expressed in transfected cells; host or cells: HEK cells, BacMam virus transduction
T3 sequence (O95838 1-553): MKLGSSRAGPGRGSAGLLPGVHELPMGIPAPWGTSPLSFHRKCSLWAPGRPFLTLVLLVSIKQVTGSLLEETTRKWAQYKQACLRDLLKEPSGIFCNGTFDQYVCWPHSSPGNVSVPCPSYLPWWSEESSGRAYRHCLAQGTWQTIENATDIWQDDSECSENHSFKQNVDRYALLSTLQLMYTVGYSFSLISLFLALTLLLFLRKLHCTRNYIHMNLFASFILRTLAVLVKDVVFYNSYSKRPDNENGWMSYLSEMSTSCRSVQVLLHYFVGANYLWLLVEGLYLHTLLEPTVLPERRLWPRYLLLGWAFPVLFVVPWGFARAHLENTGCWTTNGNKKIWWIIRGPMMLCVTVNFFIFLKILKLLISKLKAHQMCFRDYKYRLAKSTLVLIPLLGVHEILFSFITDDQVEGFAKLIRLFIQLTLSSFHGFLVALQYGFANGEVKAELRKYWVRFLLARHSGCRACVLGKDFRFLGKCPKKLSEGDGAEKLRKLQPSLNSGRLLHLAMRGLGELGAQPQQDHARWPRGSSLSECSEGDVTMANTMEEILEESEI
Nature of the data set: cAMP accumulation assay, functional agonism of human GLP2 receptor. In kind it is cell-based. Conditions: HEK cells infected with human GLP2 receptor BacMam virus, HTRF cAMP; for Emax: HEK293, read-out: Human GLP-2R agonist cAMP Emax; for EC50: read-out: Human GLP-2R agonist cAMP pEC50 (converted). In outline:
as §1

Data set [3] in a line: Stability of peptides in Fasted-State Simulated Intestinal Fluid (FaSSIF). It is filed as in vitro ADME. Conditions: FaSSIF with 10 mg/ml pancreatin; t=30 mins, 37° C., pH 6.5, 10 mg/ml pancreatin.
Another data set concerns the target T4, mouse GLP2 receptor (Mus musculus, UniProt Q5IXF8).
T4 construct: expressed in transfected cells; host or cells: HEK cells, transient transfection with GeneJuice
T4 sequence (Q5IXF8 1-512): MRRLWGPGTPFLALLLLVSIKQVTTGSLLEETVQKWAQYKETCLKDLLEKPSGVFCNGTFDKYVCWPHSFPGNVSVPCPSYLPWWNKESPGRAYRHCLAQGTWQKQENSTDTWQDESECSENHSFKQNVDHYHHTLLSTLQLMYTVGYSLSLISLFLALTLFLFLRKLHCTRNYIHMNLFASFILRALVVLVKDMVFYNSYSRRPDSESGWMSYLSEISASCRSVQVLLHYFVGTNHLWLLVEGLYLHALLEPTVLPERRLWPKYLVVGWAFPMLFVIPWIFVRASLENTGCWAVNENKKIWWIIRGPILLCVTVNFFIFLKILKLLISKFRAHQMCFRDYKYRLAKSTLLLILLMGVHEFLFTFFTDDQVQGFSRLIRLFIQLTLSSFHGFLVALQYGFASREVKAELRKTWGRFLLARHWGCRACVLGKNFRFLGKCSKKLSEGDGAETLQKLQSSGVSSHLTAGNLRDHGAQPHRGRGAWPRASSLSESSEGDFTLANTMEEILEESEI
The data set can be described thus: cAMP accumulation assay, functional agonism of mouse GLP2 receptor. It is filed as cell-based. The essentials:
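pEC50 values come from four-parameter fits of HTRF cAMP signal, read after lysis and 1 h RT incubation. Compounds were incubated 45 min at 37 °C with previously frozen, transiently transfected HEK cells (8000/well) in HBSS containing 0.5 mM IBMX.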

A further data set in a line: in vitro. Conditions: Sprague Dawley, rat, real gastrointestinal fluid or homogenate.

T1 sequence (P43220 24-463): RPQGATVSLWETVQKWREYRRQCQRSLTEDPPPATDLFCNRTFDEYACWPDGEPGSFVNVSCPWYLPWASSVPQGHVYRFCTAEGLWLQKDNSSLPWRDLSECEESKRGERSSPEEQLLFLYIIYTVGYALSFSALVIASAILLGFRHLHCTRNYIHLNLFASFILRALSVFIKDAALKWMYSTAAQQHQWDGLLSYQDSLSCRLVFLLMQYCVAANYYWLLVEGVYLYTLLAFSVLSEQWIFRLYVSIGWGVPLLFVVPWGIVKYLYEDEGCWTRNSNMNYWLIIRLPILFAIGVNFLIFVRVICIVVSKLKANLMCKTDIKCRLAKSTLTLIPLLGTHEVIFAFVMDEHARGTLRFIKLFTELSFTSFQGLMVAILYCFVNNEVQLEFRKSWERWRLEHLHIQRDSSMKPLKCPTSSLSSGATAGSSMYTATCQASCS
Method for in vitro: as §2

In the case of `CCCC[C@@H]1NC(=O)[C@H](CCC(=O)O)NC(=O)[C@@H](NC(=O)[C@H](CO)NC(=O)[C@H](Cc2ccccc2)NC(=O)[C@H](CO)NC(=O)CNC(=O)[C@H](Cc2nn[nH]n2)NC(=O)C(C)(C)C(=O)NCCc2c[nH]cn2)CCCCNC(=O)C[C@@H](C(=O)N[C@H](C(=O)N[C@@H](CC(C)C)C(=O)N[C@@H](CC(=O)O)C(=O)N[C@H]2CCC(=O)NCCCC[C@@H](C(=O)N[C@@H](CC(=O)O)C(=O)N[C@@H](Cc3ccccc3)C(=O)N[C@H](C(=O)N[C@@H](CC(N)=O)C(=O)N[C@@H](Cc3c[nH]c4ccccc34)C(=O)N[C@@H](CC(C)C)C(=O)N[C@H](C(=O)N[C@@H](CCC(N)=O)C(=O)N[C@H](C(=O)N[C@H]3CCC(=O)NCCCC[C@@H](C(N)=O)NC(=O)[C@H]([C@@H](C)O)NC(=O)[C@H]([C@@H](C)CC)NC3=O)[C@@H](C)O)[C@@H](C)CC)[C@@H](C)CC)NC(=O)[C@H](C)NC(=O)[C@H](C)NC(=O)[C@H](CCCCN)NC2=O)[C@@H](C)CC)NC(=O)[C@@H](Cc2ccccc2)NC1=O` [Example 2] ({Malonyl(2,2-Me2,histaminyl)}-[Ala(1H-tetrazol-5-yl)]GSFSKE[Nle][dF]DILDEKAAKDFINWLIQTEITK-NH2; lactam 6-10, 14-18, 28-31 (inferred); C-terminus assumed), the maximum response (Emax) on human GLP1 receptor worked out at 92.5%; at mouse GLP1 receptor (HEK293, read-out: Mouse GLP-1R agonist cAMP Emax), 94.3%; on human GLP2 receptor, 103%; on mouse GLP2 receptor (HEK293, HEK cells transiently transfected with mouse GLP2 receptor, HTRF cAMP, read-out: Mouse GLP-2R agonist cAMP Emax), 91.6%. Further, the EC50 on human GLP1 receptor is 0.398 nM; on mouse GLP1 receptor (read-out: Mouse GLP-1R agonist cAMP pEC50 (converted)), 0.0398 nM; at human GLP2 receptor, 0.0316 nM; at mouse GLP2 receptor (HEK cells transiently transfected with mouse GLP2 receptor, HTRF cAMP, read-out: Mouse GLP-2R agonist cAMP pEC50 (converted)), 1 nM. Besides, the fraction remaining at 0.5 h in data set [1] was 34%; in data set [2], 22.5%; in data set [3], 11%.

For the molecule `CCCC[C@@H]1NC(=O)[C@H](CCC(=O)O)NC(=O)[C@@H](NC(=O)[C@H](CO)NC(=O)[C@](C)(Cc2ccccc2F)NC(=O)[C@H](CO)NC(=O)[C@@H](C)NC(=O)[C@H](Cc2nn[nH]n2)NC(=O)C(C)(C)C(=O)NCCc2c[nH]cn2)CCCCNC(=O)C[C@@H](C(=O)N[C@H](C(=O)N[C@@H](CC(C)C)C(=O)N[C@@H](CC(=O)O)C(=O)N[C@H]2CCC(=O)NCCCC[C@@H](C(=O)N[C@@H](CC(=O)O)C(=O)N[C@@H](Cc3ccccc3)C(=O)N[C@H](C(=O)N[C@H]3CCCCNC(=O)C[C@@H](C(=O)N[C@H]4CCC(=O)NCCCC[C@@H](C(N)=O)NC(=O)[C@H]([C@@H](C)O)NC(=O)[C@H]([C@@H](C)CC)NC(=O)[C@H](CCCCN)NC4=O)NC(=O)[C@H]([C@@H](C)CC)NC(=O)[C@H](CC(C)C)NC(=O)[C@H](Cc4c[nH]c5ccccc45)NC3=O)[C@@H](C)CC)NC(=O)[C@H](C)NC(=O)[C@H](C)NC(=O)[C@H](CCCCN)NC2=O)[C@@H](C)CC)NC(=O)[C@@H](Cc2ccccc2)NC1=O` [Example 55] ({Malonyl(2,2-Me2,histaminyl)}-[Ala(1H-tetrazol-5-yl)][dA]S[αMePhe(2-F)]SKE[Nle][dF]DILDEKAAKDFIKWLIDEKITK-NH2; lactam 6-10, 14-18, 22-26, 27-31 (inferred); C-terminus assumed), the maximal effect (Emax) at human GLP1 receptor came out at 97.9%; on human GLP2 receptor it was 103%; at mouse GLP2 receptor (HEK293, read-out: Mouse GLP-2R agonist cAMP Emax) it was 101%. For the same molecule, the EC50 at human GLP1 receptor was 0.0501 nM; at human GLP2 receptor, 0.01 nM; at mouse GLP2 receptor, 0.316 nM. The molecule also registered an amount remaining at 0.5 h in “in vitro” of 64.9%.
